Structures are written as SMILES. “And” between values parts separate entries of the source, which are not always exact repeats. Equal values may be shown once.

In one data set the test system is caspase-3 in 786-O cells. To be noted: 72 h, compounds at 20 μM.
The subject of data set [1] is tumor slices of clear cell renal carcinoma (786-O-luc xenograft). To be noted: 10 μM CX-4945, 5 μM AB668.
In another data set the test system is AKT (S129). The following applies: 786-O cells; 48 h.
The subject of data set [2] is AKT (S129) in 786-O cells.
The next data set relates to HEK293 cell line. The following applies: nontumor HEK293 cell line; cited from earlier work.
Another data set concerns HeLa cells. The following applies: cited from earlier work.

As to `O=C(O)c1ccc2c(c1)nc(Nc1cccc(Cl)c1)c1ccncc12` [CX-4945, silmitasertib], in the data set with 786-O cells, the “NES: Cell recruitment (pro-inflammatory response)” value was determined as 1.563, the “NES: Constitutive Signaling by NOTCH1 HD+PEST Domain Mutants” value is -1.497, the “NES: Constitutive Signaling by NOTCH1 PEST Domain Mutants” value is -1.497 and the “NES: Export of Viral Ribonucleoproteins from Nucleus” value stood at 1.432. Also, in the data set on 786-O cells, the “NES: G alpha (12/13) signalling events” value is listed as -1.412, the “NES: HCMV Late Events” value came to 1.511, the “NES: Infection with Mycobacterium tuberculosis” value is listed as 1.475 and the “NES: Interferon alpha/beta signaling” value is recorded as -1.554. In the data set on 786-O cells, the “NES: Purinergic signaling in leishmaniasis infection” value is 1.563, the “NES: Response of Mtb to phagocytosis” value is on record as 1.605, the “NES: Rev-mediated nuclear export of HIV RNA” value is reported as 1.427 and the “NES: Signaling by NOTCH1 HD+PEST Domain Mutants in Cancer” value is -1.497. Besides, in the data set with 786-O cells, the “NES: Signaling by NOTCH1 PEST Domain Mutants in Cancer” value is given as -1.497; the “NES: Signaling by NOTCH1 in Cancer” value is -1.497; the “NES: Uptake and actions of bacterial toxins” value amounted to 1.428; the “enrichmentScore: Cell recruitment (pro-inflammatory response)” value stood at 0.6607. Moreover, in the data set with 786-O cells, the “enrichmentScore: Constitutive Signaling by NOTCH1 HD+PEST Domain Mutants” value is recorded as -0.4974, the “enrichmentScore: Constitutive Signaling by NOTCH1 PEST Domain Mutants” value is -0.4974, the “enrichmentScore: Export of Viral Ribonucleoproteins from Nucleus” value turned out to be 0.45 and the “enrichmentScore: G alpha (12/13) signalling events” value is given as -0.5156. In the data set on 786-O cells, the “enrichmentScore: HCMV Late Events” value was determined as 0.4357, the “enrichmentScore: Infection with Mycobacterium tuberculosis” value is 0.5692, the “enrichmentScore: Purinergic signaling in leishmaniasis infection” value came out at 0.6607 and the “enrichmentScore: Response of Mtb to phagocytosis” value is 0.6338. Also, in the data set on 786-O cells, the “enrichmentScore: Rev-mediated nuclear export of HIV RNA” value is reported as 0.4457, the “enrichmentScore: Signaling by NOTCH1 HD+PEST Domain Mutants in Cancer” value is listed as -0.4974, the “enrichmentScore: Signaling by NOTCH1 PEST Domain Mutants in Cancer” value was -0.4974 and the “enrichmentScore: Signaling by NOTCH1 in Cancer” value is given as -0.4974. The “enrichmentScore: Uptake and actions of bacterial toxins” value in the data set on 786-O cells came to 0.5866. In the data set on 786-O cells (R-HSA-9692916, CX4945 vs DMSO), the “NES: SARS-CoV-1 activates/modulates innate immune responses” value is recorded as 1.374 and the “enrichmentScore: SARS-CoV-1 activates/modulates innate immune responses” value is listed as 0.4726. In the data set on 786-O cells (R-HSA-9735869, CX4945 vs DMSO), the “NES: SARS-CoV-1 modulates host translation machinery” value is -1.391 and the “enrichmentScore: SARS-CoV-1 modulates host translation machinery” value is on record as -0.4335. Moreover, in the data set on caspase-3 in 786-O cells, the caspase-3 activation result was “induced caspase-3 activation”. The “cell viability of tumor slices” value in data set [1] is on record as “had no effect”. In addition, in the data set on AKT (S129), the “phosphorylation of S129AKT” value is on record as “decreased, in a dose-dependent manner”. Besides, in data set [2], the “pAKTS129 / AKT band quantification” value is 0.3 and 0.4. In the data set with CK2 in 786-O cells, the “CK2 inhibition 8 h after inhibitor removal” value was “CK2 activity was restored to its initial level”.
`O=C(CCC(=O)NCCc1ccc(Cl)c(Cl)c1)NCCCCn1cnc2c(Br)c(Br)c(Br)c(Br)c21` [KN2]: the cytotoxicity with HEK293 cell line was 16 µM; in the data set with HeLa cells it was 6 µM.
With `CCC(=O)Nc1cc(Nc2cc(NC3CC3)n3ncc(C#N)c3n2)ccc1C` [SGC-CK2-1], the caspase-3 activation entry in the data set on caspase-3 in 786-O cells was “did not activate caspase-3”. Besides, in the data set with AKT (S129), the “phosphorylation of S129AKT” value is “decreased, in a dose-dependent manner”. For the same compound, the “pAKTS129 / AKT band quantification” value in data set [2] is 0.4. Further, the “CK2 inhibition 8 h after inhibitor removal” value with CK2 in 786-O cells is reported as “persisted”.
As for `CN[C@@H]1C[C@H]2O[C@@](C)([C@@H]1OC)n1c3ccccc3c3c4c(c5c6ccccc6n2c5c31)C(=O)NC4` [staurosporine], in the data set with caspase-3 in 786-O cells, the caspase-3 activation result is “induced caspase-3 activation”.

Source of the values: paper PMC10838953.
